Reference: the NIST ThermoML archive (doi:10.1016/j.jct.2017.06.002)
± gives the expanded uncertainty stated by the source.

Test: xn = mol fraction of the nth substance listed
Details: 100 kPa, Liquid; for viscosity: Concentric cylinders viscometry; for mass density: Vibrating tube method

COCOCOCOCOC [2,4,6,8,10-pentaoxaundecane] + COCOCOCOC
Details	mass density [kg/m3]	viscosity [mPa·s]
288.15 K, x2 = 0	1078.8 ± 2	2.207 ± 0.051
288.15 K, x2 = 0.12	1074.7 ± 2.1	2.085 ± 0.055
288.15 K, x2 = 0.24	1070.3 ± 2.1	1.982 ± 0.054
288.15 K, x2 = 0.35	1065.8 ± 2.2	1.899 ± 0.053
288.15 K, x2 = 0.45	1061.1 ± 2.2	1.83 ± 0.053
288.15 K, x2 = 0.55	1056.3 ± 2.2	1.769 ± 0.052
288.15 K, x2 = 0.65	1051.8 ± 2.2	1.707 ± 0.053
288.15 K, x2 = 0.74	1047.6 ± 2.2	1.642 ± 0.054
288.15 K, x2 = 0.83	1043.9 ± 2.2	1.553 ± 0.055
288.15 K, x2 = 0.86	1042.2 ± 2.2	–
288.15 K, x2 = 0.92	1039.9 ± 2.1	1.442 ± 0.061
288.15 K, x2 = 0.96	1039.1 ± 2.1	–
293.15 K, x2 = 0	1073.3 ± 2	2.015 ± 0.051
293.15 K, x2 = 0.12	1069.2 ± 2.1	1.895 ± 0.054
293.15 K, x2 = 0.24	1065.1 ± 2.1	1.798 ± 0.053
293.15 K, x2 = 0.35	1061 ± 2.2	1.724 ± 0.053
293.15 K, x2 = 0.45	1056.7 ± 2.2	1.663 ± 0.052
293.15 K, x2 = 0.55	1052.2 ± 2.2	1.606 ± 0.052
293.15 K, x2 = 0.65	1047.5 ± 2.2	1.556 ± 0.052
293.15 K, x2 = 0.74	1043.1 ± 2.2	1.494 ± 0.053
293.15 K, x2 = 0.83	1038.9 ± 2.2	1.412 ± 0.055
293.15 K, x2 = 0.86	1036.6 ± 2.2	–
293.15 K, x2 = 0.92	1034.6 ± 2.2	1.311 ± 0.058
293.15 K, x2 = 0.96	1032.4 ± 2.3	–
298.15 K, x2 = 0	1068.2 ± 2	1.848 ± 0.051
298.15 K, x2 = 0.12	1064.2 ± 2.1	1.729 ± 0.054
298.15 K, x2 = 0.24	1060 ± 2.1	1.639 ± 0.053
298.15 K, x2 = 0.35	1055.5 ± 2.2	1.574 ± 0.052
298.15 K, x2 = 0.45	1051.3 ± 2.2	1.523 ± 0.052
298.15 K, x2 = 0.55	1047.1 ± 2.2	1.472 ± 0.052
298.15 K, x2 = 0.65	1043.1 ± 2.2	1.429 ± 0.052
298.15 K, x2 = 0.74	1038.5 ± 2.2	1.374 ± 0.053
298.15 K, x2 = 0.83	1034.1 ± 2.3	1.3 ± 0.054
298.15 K, x2 = 0.86	1031.3 ± 2.2	–
298.15 K, x2 = 0.92	1029.3 ± 2.2	1.21 ± 0.056
298.15 K, x2 = 0.96	1026.3 ± 2.5	–
303.15 K, x2 = 0	1063.4 ± 2	1.703 ± 0.051
303.15 K, x2 = 0.12	1059.7 ± 2.1	1.582 ± 0.054
303.15 K, x2 = 0.24	1055.1 ± 2.2	1.496 ± 0.052
303.15 K, x2 = 0.35	1050.5 ± 2.2	1.437 ± 0.052
303.15 K, x2 = 0.45	1046.1 ± 2.2	1.394 ± 0.051
303.15 K, x2 = 0.55	1041.8 ± 2.2	1.354 ± 0.051
303.15 K, x2 = 0.65	1038 ± 2.2	1.319 ± 0.051
303.15 K, x2 = 0.74	1033.9 ± 2.2	1.273 ± 0.052
303.15 K, x2 = 0.83	1029.5 ± 2.3	1.217 ± 0.053
303.15 K, x2 = 0.86	1026.8 ± 2.3	–
303.15 K, x2 = 0.92	1024.2 ± 2.3	1.139 ± 0.055
303.15 K, x2 = 0.96	1020.7 ± 2.8	–
308.15 K, x2 = 0	1059.1 ± 2	1.576 ± 0.051
308.15 K, x2 = 0.12	1055.5 ± 2.1	1.448 ± 0.054
308.15 K, x2 = 0.24	1050.8 ± 2.2	1.366 ± 0.052
308.15 K, x2 = 0.35	1046.2 ± 2.2	1.313 ± 0.051
308.15 K, x2 = 0.45	1041.8 ± 2.2	1.28 ± 0.051
308.15 K, x2 = 0.55	1037.5 ± 2.2	1.248 ± 0.051
308.15 K, x2 = 0.65	1033.7 ± 2.2	1.23 ± 0.051
308.15 K, x2 = 0.74	1029.8 ± 2.2	1.192 ± 0.051
308.15 K, x2 = 0.83	1025.5 ± 2.3	1.149 ± 0.052
308.15 K, x2 = 0.86	1022.6 ± 2.3	–
308.15 K, x2 = 0.92	1019.8 ± 2.4	1.087 ± 0.054
308.15 K, x2 = 0.96	1015.6 ± 3	–
313.15 K, x2 = 0	1055.2 ± 2	1.464 ± 0.051
313.15 K, x2 = 0.12	1051.7 ± 2.1	1.331 ± 0.054
313.15 K, x2 = 0.24	1047.2 ± 2.1	1.252 ± 0.052
313.15 K, x2 = 0.35	1042.8 ± 2.2	1.207 ± 0.051
313.15 K, x2 = 0.45	1038.2 ± 2.2	1.18 ± 0.051
313.15 K, x2 = 0.55	1034.2 ± 2.2	1.155 ± 0.051
313.15 K, x2 = 0.65	1030.3 ± 2.2	1.143 ± 0.051
313.15 K, x2 = 0.74	1026.4 ± 2.2	1.121 ± 0.051
313.15 K, x2 = 0.83	1022.1 ± 2.3	1.092 ± 0.051
313.15 K, x2 = 0.86	1018.9 ± 2.4	–
313.15 K, x2 = 0.92	1016.2 ± 2.5	1.044 ± 0.053
313.15 K, x2 = 0.96	1011.6 ± 3.4	–
